Experimental data taken from patent US6660501B2, “Production of proteins by cell culture” (Lonza Group, AG, priority 1986, dated 2003).

How the values were obtained:
hybridoma cell line I = experiment: Harvest antibody titre, hybridoma cell line I; assay type: cell-based; conditions: DMEM + 5% FCS, control 113
Procedure: (§1) […] Cells were cultured in either roller bottles or in shake-flasks, as in Example 1. Sodium butyrate was added to cultures immediately after inoculation.

Hybridoma cells = experiment: Effect of sodium butyrate on a variety of hybridoma cell lines (summary statement); assay type: cell-based; conditions: butyrate added immediately after inoculation
Procedure: (§2) Hybridoma cells were grown in suspension culture in either serum-free medium (see Example 1) or in DMEM supplemented with 10% (v/v), heat inactivated foetal calf serum. Cells were cultured in either roller bottles or in shake-flasks, as in Example 1. Sodium butyrate was added to cultures immediately after inoculation.

hybridoma cell line F = experiment: Harvest antibody titre, hybridoma cell line F; assay type: cell-based; conditions: SFM + 5% FCS, 0.50 mM butyrate, control 90
Procedure: as §1

hybridoma cell line C = experiment: Harvest antibody titre, hybridoma cell line C; assay type: cell-based; conditions: DMEM + 10% FCS, 0.50 mM butyrate, control 51
Procedure: as §2

hybridoma cell line K = experiment: Harvest antibody titre, hybridoma cell line K; assay type: cell-based; conditions: SFM + 1% FCS, 0.50 mM butyrate, control 15
Procedure: as §2

hybridoma cell line H = experiment: Harvest antibody titre, hybridoma cell line H; assay type: cell-based; conditions: SFM, 0.50 mM butyrate, control 62
Procedure: as §2

hybridoma cell line L = experiment: Harvest antibody titre, hybridoma cell line L; assay type: cell-based; conditions: SFM, control 34
Procedure: as §2

hybridoma cell line G = experiment: Harvest antibody titre, hybridoma cell line G; assay type: cell-based; conditions: SFM, control 10
Procedure: as §2

[1] = test system: IgM secreting mouse hybridoma cell line NB1/19; experiment: Effect of sodium butyrate on hybridoma cell growth and antibody production, serum-free medium, shake flasks (ELISA); assay type: cell-based
Procedure: The IgM secreting mouse hybridoma cell line NB1/19 was grown in suspension culture in Dulbeccos Modified Eagles Minimum (DMEM) serum-free medium containing albumin, insulin, transferrin, gentamycin and other additives as required to cultivate cells in suspension culture. The NB1/19 cell line produces a mouse monoclonal antibody having specificity for an antigenic determinant of human B-type blood cells. The preparation of this call line is described in detail in the specification of British Patent GB 2097425B. It will be appreciated, however, that other hybridoma cell lines may be used in place of this particular cell line as appropriate in this and other examples.
The cells were grown to a viable cell density of 1.0-1.5×10^6 cells/ml. Viable cell density was determined by counting the number of cells which exclude trypan blue, a staining agent. A sample of the suspension culture was diluted in a serum-free medium to a density of about 1.3×10^5 cells/ml. Aliquots of 50 ml in volume were dispensed into shake flasks and sodium butyrate added at concentrations of 0.1 mM, 0.3 mM, 0.5 mM and 1.0 mM.
The shake flasks were gassed with 5% CO2-95% air, and sealed and incubated with shaking at 37° C. for up to 207 hours. (Table 1). Samples ([…]) were removed from the culture by pipette. 100 μl was used to determine viable cell count and the reminder centrifuged at 300×g for five minutes. Supernatants were stored at −20° C. prior to antibody determination by enzyme linked immunosorbent assay (ELISA).

hybridoma cell line B = experiment: Harvest antibody titre, hybridoma cell line B; assay type: cell-based; conditions: SFM + 10% FCS, control 173
Procedure: as §2

[2] = test system: Syrian hamster cells with plasmid containing SV40 genome and HSV-TK gene; conditions: concentrations ranging from 1 mM to 5 mM; Yuan et al; cited from earlier work

Structure (SMILES): CCCC(=O)[O-].[Na+] [sodium butyrate]
- HARVEST ANTIBODY TITER (hybridoma cell line I; 0.35 mM butyrate): 135 mg/L
- HARVEST ANTIBODY TITER (hybridoma cell line I; 0.50 mM butyrate): 154 mg/L
- amount of antibody produced per cell (Hybridoma cells): increased the amount of antibody produced per cell
- HARVEST ANTIBODY TITER (hybridoma cell line F): 132 mg/L
- HARVEST ANTIBODY TITER (hybridoma cell line C): 71 mg/L
- HARVEST ANTIBODY TITER (hybridoma cell line K): 26 mg/L
- HARVEST ANTIBODY TITER (hybridoma cell line H): 109 mg/L
- HARVEST ANTIBODY TITER (hybridoma cell line L; 0.25 mM butyrate): 50 mg/L
- HARVEST ANTIBODY TITER (hybridoma cell line L; 0.50 mM butyrate): 58 mg/L
- HARVEST ANTIBODY TITER (hybridoma cell line G; 0.25 mM butyrate): 11 mg/L
- HARVEST ANTIBODY TITER (hybridoma cell line G; 0.50 mM butyrate): 13 mg/L
- Average specific rate of antibody production ([1]; 0.1 mM sodium butyrate): 26 μg/10^6 cells/day
- antibody concentration ([1]; 0.1 mM sodium butyrate, 41 hours): 34 µg/mL
- antibody concentration ([1]; 0.1 mM sodium butyrate, 87 hours): 90 µg/mL
- antibody concentration ([1]; 0.1 mM sodium butyrate, 137 hours): 128 µg/mL
- Average specific rate of antibody production ([1]; 0.3 mM sodium butyrate): 26 μg/10^6 cells/day
- antibody concentration ([1]; 0.3 mM sodium butyrate, 41 hours): 41 µg/mL
- antibody concentration ([1]; 0.3 mM sodium butyrate, 87 hours): 114 µg/mL
- antibody concentration ([1]; 0.3 mM sodium butyrate, 137 hours): 147 µg/mL
- Average specific rate of antibody production ([1]; 0.5 mM sodium butyrate): 31 μg/10^6 cells/day
- antibody concentration ([1]; 0.5 mM sodium butyrate, 41 hours): 50 µg/mL
- antibody concentration ([1]; 0.5 mM sodium butyrate, 87 hours): 173 µg/mL
- antibody concentration ([1]; 0.5 mM sodium butyrate, 137 hours): 173 µg/mL
- Average specific rate of antibody production ([1]; 1.0 mM sodium butyrate): 52 μg/10^6 cells/day
- antibody concentration ([1]; 1.0 mM sodium butyrate, 41 hours): 39 µg/mL
- antibody concentration ([1]; 1.0 mM sodium butyrate, 137 hours): 180 µg/mL
- antibody concentration ([1]; 1.0 mM sodium butyrate, 207 hours): 256 µg/mL
- HARVEST ANTIBODY TITER (hybridoma cell line B; 0.35 mM butyrate): 232 mg/L
- HARVEST ANTIBODY TITER (hybridoma cell line B; 0.50 mM butyrate): 240 mg/L
- expression of SV40 and HSV-TK genes compared with control values [2]: inhibited the expression of both genes
